Read-outs that look alike come from different tables or passages of the source.
Legend:
[1] = Solubility in aqueous media (excess solid stirred in buffer, HPLC of filtered supernatant); details: 1 mM acetate buffer at pH 5, 25°C, 24 hours stirring
Experimental: (§1) Solubility in aqueous media. A calibration curve is constructed via HPLC analysis of a series of solutions of the compound of interest at known concentrations in a suitable solvent. A known amount (excess) of solid compound is placed in a 20-mL vial to which a 5 mL aliquot of 1 mM acetate buffer at pH 5 is then added. The contents are stirred at 25°C for 24 hours. After a 4-hour decantation period, 1 mL of the supernatant is filtered through a PTFE 0.45 µm filter, diluted with 2 v/v of acetonitrile and analyzed by HPLC. The entire procedure is repeated twice with the same sample, at 24-hour intervals, to verify the invariance of the result.

[2] = pH 5
Experimental: as §1

[3] = Stability to oxidation: reaction with DPPH radical, absorbance at 520 nm; type: physicochemical; details: 20 nmoles of DPPH in methanol, absorbance at 520 nm after 40 min (Fig. 5)
Experimental: At time zero, 20 nmoles of DPPH and the specified amount of resveratrol or of its derivative were mixed in methanol. Absorbance was measured after 40 min.
The susceptibility to oxidation can be assessed by studying c) the reaction with the 1,1-diphenyl-2-picrylhydrazyl (DPPH) radical.
DPPH is a stable free radical with an absorbance maximum at 520 nm (purple). Upon reaction with polyphenols it is converted to DPPHH (yellow) and this change of colour is an indication of the extent of the reaction which has taken place. The assays were conducted using 96-well plates following Fukumoto and Mazza (2000), measuring absorbance with a Tecan Infinite 200 plate reader.

Row | Compound | Solubility in water [2] | reaction with DPPH [3] | other results
1 | CNC(=O)Oc1ccc(C=Cc2cc(OC(=O)NC)cc(OC(=O)NC)c2)cc1 [Resv(Me-C)3, 3,4',5-tri-[N-methyl-carbamoyl]-resveratrol] |  |  | Solubility in water [1]: below detection limit
2 | CCCCCCCCC=CCCCCCCCCNC(=O)Oc1ccc(C=Cc2cc(OC(=O)NCCCCCCCCC=CCCCCCCCC)cc(OC(=O)NCCCCCCCCC=CCCCCCCCC)c2)cc1 [Resv(Oleyl-C)3, 3,4',5-tri-[N-(octadec-9-enyl)-carbamoyl]-resveratrol] | below detection limit |  | 
3 | Oc1ccc(C=Cc2cc(O)cc(O)c2)cc1 [resveratrol] |  | stoichiometric oxidation | 
4 | COCCOCCOCCNC(=O)Oc1ccc(C=Cc2cc(OC(=O)NCCOCCOCCOC)cc(OC(=O)NCCOCCOCCOC)c2)cc1 [Resv(TGME-C)3, 3,4',5-tri-[N-methoxytri-(ethyleneglycol)-carbamoyl] resveratrol] |  | does not react at all with DPPH | 
5 | O=C(NC(Cc1ccccc1)C(=O)O)Oc1ccc(C=Cc2cc(OC(=O)NC(Cc3ccccc3)C(=O)O)cc(OC(=O)NC(Cc3ccccc3)C(=O)O)c2)cc1 (centres unmarked) [Resv(HOPhe-C)3, 3,4',5-tri-[N-(phenylalanyl)-carbamoyl]-resveratrol] | below detection limit |  | 
